Several values for one entry are separate records, joined by “and”; a condition that tells them apart may be missing. Identical values can stand only once.
Legend:
[1] = test system: rat model of hyperglycemia-induced nephropathy; assay: Hyperglycemia-induced nephropathy model (streptozotocin); format: in vivo; details: streptozotocin rats, 5 mg/kg body weight/day in food, 90 days
Description: The method was as follows:
Wild type Sprague-Dawley rats were used. The compounds was dissolved in DMSO and mixed into food pellets. The animals were given ad libitum access to the pellets. […] In addition, 3 days before compound treatment, the animal of group 2 to 4 were given a single intraperitoneal injection of streptozotocin, and 3 days later, blood glucose levels were measured from tail veins using a glucose meter. Animals with blood glucose levels above 500˜650 milligrams per deciliter were considered as hyperglycemia and were used for further study. No any side effect, or significant body weight changes, or significant dietary changes were found during the administration. After 90 days after initiation of treatment, blood pressure values were measured with the tail cuff system. The day before the kidneys were harvested, animals were placed in metabolic cages for 24 h for urine collection, and albumin to creatinine ratio (ACR) was measured. Animals were then fasted for 12 hours and sacrificed under anesthesia with a 10% chloral hydrate solution (0.3 g/kg). Serum samples were isolated and biochemical parameters were analyzed with by enzyme colorimetry in an automatic analyzer (Roche) to determine the FBG (fasting blood glucose) level (unit millimole/L). In addition, fasting insulin (FINS) levels, where the units are milliIU/L, were determined by enzyme-linked immunosorbent assay (ELISA) method with anti-rat insulin antibodies, and TNF-α was detected by rat tumor necrosis factor-α (TNF-α) ELISA kit (BD). […] The difference is significant with P<0.05.

[2] = Blood-brain barrier permeability: brain concentration after a single injection; format: in vivo, rat; details: male, rat, in vivo, ip, 10 mg/kg
Description: The blood-brain barrier permeability of carbonyl-containing cyclic compounds is determined in in vivo studies. Healthy male rats used in the study were divided into compound group and control group. […] The brains were dissected, heated immediately at boiling water for 2 min, homogenized with methanol, and centrifuged. The upper layer was collected and dried under vacuum to remove solvents, and then resuspended in methanol. The above samples are filtered through a 0.45 micron nylon membrane, and then 20 microL of sample were load into a high-performance liquid chromatographic (HPLC) system (Model LC-16P, Shimadzu, Japan) to perform quantitative analysis.

[3] = test system: dIoN-CCI rat model of trigeminal neuropathic pain; assay: Trigeminal neuralgia model (dIoN-CCI), Von Frey mechanical threshold; details: dIoN-CCI rats
Description: A common rat model of trigeminal neuralgia is a chronic compression injury model (CCI) caused by ligation of the infraorbital nerve (IoN). In the present study, an improved rat model of trigeminal neuropathic pain was used, in which CCI is induced by ligation of distal segment of IoN (dIoN). Wild type male Sprague-Dawley rats with body weight 250 to 260 grams underwent dIoN-CCI surgery experiments. The mechanical threshold of pain in rats without surgery experiments will exceed 6 grams. If the dIoN-CCI surgery is successful, it will reduce the pain threshold to less than 2 grams.
The mice were divided into the following 11 groups with 4 to 5 mice in each group. The formulation used for transdermal treatment is cream. […] The compound administration of each group starts on the third day after successful dIoN-CCI surgery. […] The method for detecting rat facial hypersensitivity is performed using Von Frey filaments. An analysis of variance (ANOVA) and Dunnett post hoc comparison test are used to compare the significance of the differences between different groups of data. The difference is significant with P<0.05.

CCc1ccc(CC/C=C/c2ccc3c(c2)C(=O)CC3)cc1 [ELB00824, (E)-6-(4-(4-ethylphenyl)but-1-en-1-yl)-2,3-dihydro-1H-inden-1-one]
blood TNF-α level compared with disease control group [1]: significant TNF-α level reduction
insulin resistance index ISI=ln (FBG*FINS) compared with disease control group [1]: significant ISI increase
urine albumin to creatinine ratio (ACR) compared with disease control group [1]: significant ACR reduction
Cmax [2]: 16.4 µM and 4830 ng/mL
AUC(0-t) ([2]; AUC0-6 h): 18700 ng·h/mL
AUC(0-t) ([2]; AUC0-24 h): 31500 ng·h/mL
duration of anti-allodynic effect (mechanical threshold 10 grams and above) ([3]; IP, 20 mg/kg body weight): 1.8 h
mechanical pain threshold after 1 hour of administration ([3]; IP, 20 mg/kg body weight): 12.8 ± 2.2 g
minimum effective anti-allodynic dose ([3]; oral): 3 mg/kg
mechanical threshold 2 hours after oral administration ([3]; oral 3 mg/kg body weight, Von Frey): 4.2 ± 0.8 g
duration of the anti-allodynic effect ([3]; oral 10 mg/kg): 2 h
mechanical pain threshold 2 hours after oral administration ([3]; oral 10 mg/kg body weight, Von Frey): 8.9 ± 2 g
duration of anti-allodynic effect (mechanical threshold 10 grams and above) ([3]; oral, 20 mg/kg body weight): 0.7 h
mechanical pain threshold after 1 hour of administration ([3]; oral, 20 mg/kg body weight): 6.8 ± 1.9 g
anti-allodynic property relative to pioglitazone ([3]; oral, from minimum effective doses): about 100 times
mechanical pain threshold after 1 hour of administration ([3]; transdermal cream containing 7% ELB00824, 20 mg/kg body weight): 19.8 ± 3.1 g
duration of anti-allodynic effect (mechanical threshold 10 grams and above) ([3]; transdermal, 20 mg/kg body weight): 2.3 h

Reference: patent publication US12545653B2, “Compound as PPAR agonist and application thereof” (USA Elixiria Biotech Inc., priority 2019, dated 2026)
